Reference: patent US20180362543A1, “HIV REPLICATION INHIBITOR” (Shionogi & Co., Ltd., priority 2013, published 2018)

Experiments:
CYP2D6 = molecular target: T1, CYP2D6 (Homo sapiens, UniProt P10635); assay: CYP inhibition assay, CYP2D6 (dextromethorphan O-demethylation); format: in vitro ADME; details: pooled human hepatic microsome, 15 minutes, 37° C.
T1 construct: enzyme, pooled human hepatic microsome 0.2 mg protein/mL; from tissue; host or cells: pooled human liver microsomes
Experimental: (§1) Using commercially available pooled human hepatic microsome, and employing, as markers, 7-ethoxyresorufin O-deethylation (CYP1A2), tolbutamide methyl-hydroxylation (CYP2C9), mephenytoin 4′-hydroxylation (CYP2C19), dextromethorphan O-demethylation (CYP2D6), and terfenedine hydroxylation (CYP3A4) as typical substrate metabolism reactions of human main five CYP enzyme forms (CYP1A2, 2C9, 2C19, 2D6, 3A4), an inhibitory degree of each metabolite production amount by a test compound was assessed. […]
(§2) Each five kinds of substrates, human hepatic microsome, and a test drug in 50 mmol/L Hepes buffer as a reaction solution was added to a 96-well plate as the composition as described above, NADPH, as a cofactor was added to initiate metabolism reactions as markers and, after the incubation at 37° C. for 15 minutes, a methanol/acetonitrile=1/1 (v/v) solution was added to stop the reaction. After the centrifugation at 3000 rpm for 15 minutes, resorufin (CYP1A2 metabolite) in the supernatant was quantified by a fluorescent multilabel counter and tolbutamide hydroxide (CYP2C9 metabolite), mephenytoin 4′ hydroxide (CYP2C19 metabolite), dextrorphan (CYP2D6 metabolite), and terfenadine alcohol (CYP3A4 metabolite) were quantified by LC/MS/MS. […]

CYP3A4 = molecular target: T2, CYP3A4 (Homo sapiens, UniProt P08684); assay: CYP inhibition assay, CYP3A4 (terfenedine hydroxylation); format: in vitro ADME; details: pooled human hepatic microsome, 15 minutes, 37° C.
T2 construct: enzyme, pooled human hepatic microsome 0.2 mg protein/mL; from tissue; host or cells: pooled human liver microsomes
T2 sequence (P08684 whole entry): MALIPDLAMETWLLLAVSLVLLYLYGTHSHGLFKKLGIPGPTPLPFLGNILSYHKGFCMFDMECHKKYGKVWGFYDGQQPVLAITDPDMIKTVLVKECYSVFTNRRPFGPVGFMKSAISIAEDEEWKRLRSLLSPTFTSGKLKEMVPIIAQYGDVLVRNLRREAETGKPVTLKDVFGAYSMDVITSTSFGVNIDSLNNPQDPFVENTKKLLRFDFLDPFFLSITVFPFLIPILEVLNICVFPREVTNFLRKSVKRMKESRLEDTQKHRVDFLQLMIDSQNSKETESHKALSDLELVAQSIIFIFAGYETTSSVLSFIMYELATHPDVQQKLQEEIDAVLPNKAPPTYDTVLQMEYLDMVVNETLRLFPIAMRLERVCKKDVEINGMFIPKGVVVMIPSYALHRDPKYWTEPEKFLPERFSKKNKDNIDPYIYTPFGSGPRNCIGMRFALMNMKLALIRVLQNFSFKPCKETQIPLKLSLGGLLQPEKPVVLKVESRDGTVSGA
Experimental: as §1, §2

HIV (HTLV-III B strain) = assay: HIV replication inhibition assay (MTT, MT-4 cells); format: cell-based; details: 4 days culture, concentration at which cell cytotoxicity by virus is inhibited 50%
How it was run: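 MT-4 cells (2.5×10^4/well) infected with HTLV-III B stock (60 pfu) in presence of compound, cultured four days at 37 °C. Viability by MTT reduction, formazan read at 560 and 690 nm. EC50 is concentration inhibiting virus-induced cytotoxicity by 50%.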

[1] = test system: Salmonella typhimurium TA98 strain, TA100 strain; details: Salmonella typhimurium TA98 and TA100, with and without metabolism activating condition
Experimental: The mutagenicity of the compound of the present invention was assayed.
20 μL of freezing-stored rat typhoid bacillus (Salmonella typhimurium TA98 strain, TA100 strain) was inoculated on 10 mL of a liquid nutrient medium (2.5% Oxoid nutrient broth No. 2), and this was cultured before shaking at 37° C. for 10 hours. 9 mL of a bacterial solution of the TA98 strain was centrifuged (2000×g, 10 minutes) to remove a culturing solution. The bacteria was suspended in F buffer (K2HPO4: 3.5 g/L, KH2PO4: 1 g/L, (NH4)2SO4: 1 g/L, trisodium citrate dehydrate: 0.25 g/L, MgSO4.7H2O: 0.1 g/L), and the suspension was added to 110 mL of an Exposure medium (Micro F buffer containing Biotin: 8 μg/mL, histidine: 0.2 μg/mL, glucose: 8 mg/mL). The TA100 strain was added to 120 mL of the Exposure medium per 3.16 mL of the bacterial solution to prepare a test bacterial solution. […] Since a well containing a bacterium which has obtained the proliferation ability by mutation of an amino acid (histidine) synthesizing enzyme gene turns from purple to yellow due to a pH change, the bacterium proliferation well which has turned to yellow in 48 wells per dose is counted, and was assessed by comparing with a negative control group. […]

[2] = Solubility test (1% DMSO, artificial intestinal juice pH 6.8); format: physicochemical; details: pH 6.8, 1% DMSO, 16 hours at 25° C.
Experimental: The solubility of each compound was determined under 1% DMSO addition conditions. A 10 mmol/L solution of the compound was prepared with DMSO, and 6 μL of the solution was added to 594 μL of an artificial intestinal juice (:water and a 118 mL solution of 0.2 mol/L NaOH reagent are added to 250 mL of 0.2 mol/L potassium dihydrogen phosphate reagent to reach 1000 mL) with a pH of 6.8. The mixture is left standing for 16 hours at 25° C., and the mixture is vacuum-filtered. The filtrate is two-fold diluted with methanol/water=1/1 (v/v), and the compound concentration in the filtrate is measured with HPLC or LC/MS/MS by the absolute calibration method.

CYP2C19 = molecular target: T3, CYP2C19 (Homo sapiens, UniProt P33261); assay: CYP inhibition assay, CYP2C19 (mephenytoin 4'-hydroxylation); format: in vitro ADME; details: pooled human hepatic microsome, 15 minutes, 37° C.
T3 construct: enzyme, pooled human hepatic microsome 0.2 mg protein/mL; from tissue; host or cells: pooled human liver microsomes
T3 sequence (P33261 whole entry): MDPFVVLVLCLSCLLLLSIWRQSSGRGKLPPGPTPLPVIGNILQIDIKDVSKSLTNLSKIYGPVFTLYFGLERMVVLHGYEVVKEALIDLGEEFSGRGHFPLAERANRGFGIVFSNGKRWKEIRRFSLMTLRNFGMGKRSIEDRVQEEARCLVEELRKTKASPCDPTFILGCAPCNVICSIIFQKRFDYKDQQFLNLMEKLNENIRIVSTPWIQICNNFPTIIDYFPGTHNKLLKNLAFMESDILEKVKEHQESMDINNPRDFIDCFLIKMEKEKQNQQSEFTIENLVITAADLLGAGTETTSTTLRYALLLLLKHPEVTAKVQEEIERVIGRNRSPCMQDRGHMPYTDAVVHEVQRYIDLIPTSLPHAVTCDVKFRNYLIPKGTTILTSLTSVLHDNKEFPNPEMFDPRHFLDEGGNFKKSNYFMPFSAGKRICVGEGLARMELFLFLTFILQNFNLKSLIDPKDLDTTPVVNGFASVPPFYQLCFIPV
Experimental: as §1, §2

CYP1A2 = molecular target: T4, CYP1A2 (Homo sapiens, UniProt P05177); assay: CYP inhibition assay, CYP1A2 (7-ethoxyresorufin O-deethylation); format: in vitro ADME; details: pooled human hepatic microsome, 15 minutes, 37° C.
T4 construct: enzyme, pooled human hepatic microsome 0.2 mg protein/mL; from tissue; host or cells: pooled human liver microsomes
T4 sequence (P05177 1-516): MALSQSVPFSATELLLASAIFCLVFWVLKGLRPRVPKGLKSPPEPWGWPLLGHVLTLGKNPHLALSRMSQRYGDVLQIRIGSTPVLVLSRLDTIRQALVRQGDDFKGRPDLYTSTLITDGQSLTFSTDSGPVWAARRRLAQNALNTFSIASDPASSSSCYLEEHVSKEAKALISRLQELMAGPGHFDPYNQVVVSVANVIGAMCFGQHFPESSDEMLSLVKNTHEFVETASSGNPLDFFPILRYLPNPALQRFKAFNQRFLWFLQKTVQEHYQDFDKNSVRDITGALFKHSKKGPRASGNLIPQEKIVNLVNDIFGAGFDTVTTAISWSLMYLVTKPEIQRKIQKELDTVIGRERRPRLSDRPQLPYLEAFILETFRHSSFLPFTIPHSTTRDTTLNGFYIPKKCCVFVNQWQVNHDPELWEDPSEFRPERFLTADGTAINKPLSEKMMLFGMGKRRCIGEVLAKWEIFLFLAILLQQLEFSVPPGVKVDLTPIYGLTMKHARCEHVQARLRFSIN
Experimental: as §1, §2

[3] = format: in vitro ADME; details: 0 h
[4] = molecular target: T5, human ether-a-go-go related gene (hERG) channel (Homo sapiens, UniProt Q12809); assay: hERG test (whole cell patch clamp, IKr); format: cell-based; details: HEK293 cells expressing hERG channel, concentration not given
T5 construct: expressed in transfected cells; host or cells: HEK293
T5 sequence (Q12809 whole entry): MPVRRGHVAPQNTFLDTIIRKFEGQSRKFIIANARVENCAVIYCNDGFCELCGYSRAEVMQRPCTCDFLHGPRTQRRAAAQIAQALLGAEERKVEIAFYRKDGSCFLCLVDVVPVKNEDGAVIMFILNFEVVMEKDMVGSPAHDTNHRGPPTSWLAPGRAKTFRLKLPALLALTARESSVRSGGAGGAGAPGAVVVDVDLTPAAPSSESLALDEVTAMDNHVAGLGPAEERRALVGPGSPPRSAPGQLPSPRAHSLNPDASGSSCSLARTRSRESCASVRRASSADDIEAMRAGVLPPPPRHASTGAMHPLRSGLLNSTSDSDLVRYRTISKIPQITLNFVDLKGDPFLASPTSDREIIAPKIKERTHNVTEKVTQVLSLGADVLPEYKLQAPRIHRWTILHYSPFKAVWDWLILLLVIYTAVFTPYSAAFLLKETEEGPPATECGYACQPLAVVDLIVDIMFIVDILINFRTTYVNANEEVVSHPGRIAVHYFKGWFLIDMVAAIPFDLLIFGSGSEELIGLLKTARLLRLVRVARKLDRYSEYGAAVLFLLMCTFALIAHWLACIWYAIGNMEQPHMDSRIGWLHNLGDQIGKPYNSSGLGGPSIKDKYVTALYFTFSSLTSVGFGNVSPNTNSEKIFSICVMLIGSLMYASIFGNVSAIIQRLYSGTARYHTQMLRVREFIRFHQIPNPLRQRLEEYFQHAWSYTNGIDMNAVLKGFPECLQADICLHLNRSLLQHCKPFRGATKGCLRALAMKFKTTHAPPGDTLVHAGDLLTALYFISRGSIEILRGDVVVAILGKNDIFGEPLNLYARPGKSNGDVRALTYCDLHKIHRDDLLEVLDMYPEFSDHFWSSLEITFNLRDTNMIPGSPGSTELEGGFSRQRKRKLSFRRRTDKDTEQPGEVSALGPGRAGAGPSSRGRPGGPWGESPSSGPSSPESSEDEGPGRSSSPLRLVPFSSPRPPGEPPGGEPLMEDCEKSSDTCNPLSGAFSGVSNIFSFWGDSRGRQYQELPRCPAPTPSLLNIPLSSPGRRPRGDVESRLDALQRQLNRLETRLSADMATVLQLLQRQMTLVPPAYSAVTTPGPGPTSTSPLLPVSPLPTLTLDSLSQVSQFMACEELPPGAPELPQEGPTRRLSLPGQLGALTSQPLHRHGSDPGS
Description: For the purpose of assessing risk of an electrocardiogram QT interval prolongation, effects on delayed rectifier K+ current (IKr), which plays an important role in the ventricular repolarization process of the compound of the present invention, was studied using HEK293 cells expressing human ether-a-go-go related gene (hERG) channel.
After a cell was retained at a membrane potential of −80 mV by whole cell patch clamp method using an automated patch clamp system (PatchXpress 7000A, Axon Instruments Inc.), IKr induced by depolarization pulse stimulation at +40 mV for 2 seconds and, further, repolarization pulse stimulation at −50 mV for 2 seconds was recorded. […] From the recording IKr, an absolute value of the tail peak current was measured based on the current value at the resting membrane potential using an analysis software (DataXpress ver. 1, Molecular Devices Corporation). Further, the inhibition relative to the tail peak current before application of the test substance was calculated, and compared with the vehicle-applied group (0.1% dimethyl sulfoxide solution) to assess influence of the test substance on IKr.

T1 sequence (P10635 whole entry): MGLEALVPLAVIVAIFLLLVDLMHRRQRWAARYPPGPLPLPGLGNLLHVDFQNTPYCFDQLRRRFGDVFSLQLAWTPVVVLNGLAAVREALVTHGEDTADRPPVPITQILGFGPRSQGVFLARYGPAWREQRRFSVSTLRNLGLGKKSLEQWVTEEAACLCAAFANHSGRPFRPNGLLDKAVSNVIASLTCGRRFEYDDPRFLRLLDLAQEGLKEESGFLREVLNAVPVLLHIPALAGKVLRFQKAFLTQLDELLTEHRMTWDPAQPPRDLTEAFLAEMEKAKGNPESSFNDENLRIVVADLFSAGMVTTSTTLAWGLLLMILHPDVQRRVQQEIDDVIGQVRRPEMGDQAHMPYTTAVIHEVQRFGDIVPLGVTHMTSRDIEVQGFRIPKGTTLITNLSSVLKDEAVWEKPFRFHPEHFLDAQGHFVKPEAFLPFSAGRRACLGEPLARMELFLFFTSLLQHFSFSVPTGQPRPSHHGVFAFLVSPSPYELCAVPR

SMILES	IC50 (CYP2D6) [µM]	IC50 (CYP3A4) [µM]	EC50 (HIV (HTLV-III B strain)) [µM]	mutagenicity [1]	solubility in the artificial intestinal juice [2] [µM]	IC50 (CYP2C19) [µM]	IC50 (CYP1A2) [µM]	remaining amount of compound in liver microsomes of rat [3] [%]	inhibition ratio (hERG, IKr tail peak current) [4] [%]
Cc1c(-c2c(C)c3c(c(C)c2[C@H](OC(C)(C)C)C(=O)O)NS(=O)(=O)Cc2ccccc2-3)ccc2c1CCCO2 [Compound 10]	≥ 20	≥ 20	0.0024	negative	≥ 50	≥ 20	≥ 20	91	
Cc1c2c(c(C)c(C(OC(C)(C)C)C(=O)O)c1-c1ccc3c(c1)CCCO3)NC(=O)N(Cc1ccccc1)C2 (stereo not shown) [Compound 7]			0.0096						2.6
